Measurements published in patent US12398097B2, “WDR5-MYC inhibitors” (Vanderbilt University, priority 2019, dated 2025).

Each compound was assayed against WDR5 (Homo sapiens, UniProt P61964) (assay: Competition-based fluorescence polarization anisotropy assay). Conditions: binding to WDR5; displacement of FITC-labeled small molecule probe (analogous to Example J2 or HCH-25) or peptide probe FITC-AHx-SEEEIDVVSV; pH 6.0; Ki converted from IC50.
Outline: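 Competition fluorescence polarization anisotropy binding to WDR5 using a FITC-labeled peptide probe or a fluorescently labeled small-molecule probe. Buffer: 200 mM phosphate, 300 mM NaCl, 0.5 mM TCEP, 0.1% Chaps, pH 6.0. Displacement data were converted to Ki.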

Row | Structure (SMILES) | Ki [nM]
1 | O=C(NC[C@H]1CCCO1)c1cc(Cl)cc(NS(=O)(=O)c2cc(Br)ccc2O)c1O [Example J26, (R)-3-((5-Bromo-2-hydroxyphenyl)sulfonamido)-5-chloro-2-hydroxy-N-((tetrahydrofuran-2-yl)methyl)benzamide] | 740
2 | O=C(O)c1cc(F)cc(NS(=O)(=O)c2cc(Br)ccc2O)c1O [Example J107, 3-((5-Bromo-2-hydroxyphenyl)sulfonamido)-5-fluoro-2-hydroxybenzoic acid] | 1480
3 | CN(CC1CCCO1)C(=O)c1cc(Cl)cc(NS(=O)(=O)c2cc(Br)ccc2O)c1O (centres unmarked) [Example J37, 3-((5-Bromo-2-hydroxyphenyl)sulfonamido)-5-chloro-2-hydroxy-N-methyl-N-((tetrahydrofuran-2-yl)methyl)benzamide] | 3780

Second part, the compound after the results:

Row | Ki [nM] | Structure (SMILES)
4 | 610 | O=C(O)c1cc(Br)cc(S(=O)(=O)Nc2cc(Cl)cc([N+](=O)[O-])c2O)c1O [NE12]
5 | 1070 | O=C(O)c1cc(-c2cccs2)cc(NS(=O)(=O)c2cc(Br)ccc2O)c1O [Example J196, 3-((5-bromo-2-hydroxyphenyl)sulfonamido)-2-hydroxy-5-(thiophen-2-yl)benzoic acid]
